GI50 and TGI data for nine compounds are collected here from PubChem BioAssay (NCI).

Assay in all cases: NCI anticancer screen, dose series, 48 h
Assay [1] concerns K-562 leukemia.
Assay [2] relates to SK-MEL-28 melanoma.
The test system of assay [3] is KM12 colon.
Assay [4] has as its system ACHN renal.
Assay [5] deals with SF-295 CNS.
The subject of assay [6] is A549 NSCLC.
Assay [7] relates to TK-10 renal.
The test system of assay [8] is M14 melanoma.

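Five concentrations, 48 hours, 96-well plates. GI50 marks 50% less growth. Definition used: TGI = concentration required for complete inhibition of growth.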

On to `C[C@]12CC[C@@H]3c4ccc(O)cc4CC[C@H]3[C@@H]1CC[C@@H]2NS(=O)(=O)c1cccc(C(F)(F)F)c1`, for which the GI50 in assay [1] is 3.63 µM; in assay [2] it was 5.87 µM; in assay [3], 3.4 µM; in assay [4], 3.2 µM; in assay [5], 1.86 µM; in assay [6] it was 3.23 µM. Besides, the GI50 is 4.05 µM in assay [7] and 3.88 µM in assay [8]. For the same compound, the TGI in assay [1] was 15.3 µM; in assay [2], 19.1 µM; in assay [3] it was 11.8 µM; in assay [4] it was 11.4 µM; in assay [5], 3.63 µM; in assay [6] it was 12.8 µM. Also, the TGI in assay [7] was 13.3 µM; in assay [8] it was 13.9 µM.
Regarding `C=C1CC2(C[C@@H](c3ccccc3)O[C@@H](c3ccccc3)C2)OC1=O` (stereo partly specified), the TGI stood at 7.51 µM in assay [1]; 3.83 µM in assay [2]; 15.5 µM in assay [3]; 9.01 µM in assay [4]; 26.8 µM in assay [5]; 13.4 µM in assay [6]. In addition, the TGI in assay [7] is 3.89 µM; in assay [8] it was 3.34 µM.
Consider `C=C(C)[C@@H]1CC[C@]2(C(=O)NCCNCCNCCN)CC[C@]3(C)[C@H](CC[C@@H]4[C@@]5(C)CC[C@H](O)C(C)(C)[C@@H]5CC[C@]43C)[C@@H]12`, for which the GI50 in assay [1] is 6.9 µM; in assay [2] it was 16 µM; in assay [3] it was 6.81 µM; in assay [4], 12 µM; in assay [5], 13.8 µM; in assay [6], 4.97 µM. The GI50 in assay [7] is 15.8 µM; in assay [8], 11 µM. The TGI in assay [1] is above 100 µM; in assay [2], 30.6 µM; in assay [3], 26.2 µM; in assay [4] it was 27.3 µM; in assay [5], 30.3 µM; in assay [6], 21.4 µM. Further, the TGI in assay [7] came out at 31.3 µM; in assay [8] it was 28.7 µM.
As for `CN(c1ccc(NC(=O)Nc2ccc(OC(F)(F)F)cc2)cc1)c1ccnc(Nc2cccc(S(N)(=O)=O)c2)n1`, the GI50 in assay [1] is 0.0874 µM; in assay [2], 3.42 µM; in assay [3] it was 0.0157 µM; in assay [4], 5.42 µM; in assay [5], 0.861 µM; in assay [6] it was 2.68 µM. Moreover, the GI50 was 6.21 µM in assay [7] and 3.39 µM in assay [8]. Also, the TGI stood at 4.31 µM in assay [1]; 7 µM in assay [2]; 3.99 µM in assay [3]; 15.5 µM in assay [4]; 6.48 µM in assay [5]; 9.83 µM in assay [6]. In addition, the TGI in assay [7] turned out to be 13 µM; in assay [8], 8.03 µM.
For `O=C(CCCCCCSc1nc(-c2ccccc2)cc(-c2ccccc2)n1)NO`, the GI50 was 1.58 µM in assay [1]; 2.85 µM in assay [2]; 3.22 µM in assay [3]; 1.45 µM in assay [4]; 2.18 µM in assay [5]; 2.45 µM in assay [6]. The GI50 in assay [7] is 2.51 µM; in assay [8] it was 1.58 µM. Also, the TGI in assay [1] is 12 µM; in assay [2], 12.4 µM; in assay [3], 15.9 µM; in assay [4], 3.16 µM; in assay [5] it was 5.78 µM; in assay [6] it was 10.4 µM. In addition, the TGI came out at 13.5 µM in assay [7] and 5.94 µM in assay [8].
Turning to `COc1ccc(C(=O)/C=C/c2c(C(F)(F)F)nc3sccn23)cc1OC`, the GI50 was 2.25 µM in assay [1]; 8.48 µM in assay [2]; 1.97 µM in assay [3]; 5.1 µM in assay [4]; 3.14 µM in assay [5]; 4.65 µM in assay [6]. For the same compound, the GI50 in assay [7] was 8.76 µM; in assay [8] it was 2.67 µM. Besides, the TGI is above 100 µM in assay [1]; above 100 µM in assay [2]; 11.1 µM in assay [3]; above 100 µM in assay [4]; 22.6 µM in assay [5]; above 100 µM in assay [6]. Also, the TGI in assay [7] and in assay [8] was above 100 µM throughout.
As for `C[C@H]1[C@H](C)CC[C@]2(C(=O)N3CCN(C)CC3)CC[C@]3(C)C(=CC[C@@H]4[C@@]5(C)C/C(=C/c6cccnc6)C(=O)C(C)(C)[C@@H]5CC[C@]43C)[C@H]12`, the GI50 in assay [1] was 1.67 µM; in assay [2] it was 1.4 µM; in assay [3], 0.976 µM; in assay [4] it was 1.23 µM; in assay [5] it was 1.6 µM; in assay [6], 1.06 µM. The GI50 is 1.54 µM in assay [7] and 0.802 µM in assay [8]. Besides, the TGI in assay [1] was above 100 µM; in assay [2], 2.76 µM; in assay [3], 2.56 µM; in assay [4], 2.49 µM; in assay [5] it was 3.01 µM; in assay [6] it was 2.32 µM. The TGI in assay [7] worked out at 3.04 µM; in assay [8] it was 2.3 µM.
As for `O=Cc1cn(Cc2cccc(Cl)c2)c2ccccc12`, the GI50 was 2.97 µM in assay [1]; 15.9 µM in assay [2]; 14.7 µM in assay [3]; 12.9 µM in assay [4]; 0.948 µM in assay [5]; 15.9 µM in assay [6]. The GI50 is 0.136 µM in assay [7] and 11.4 µM in assay [8]. Further, the TGI in assay [1] was above 56.7 µM; in assay [2] it was 31.1 µM; in assay [3], 35.1 µM; in assay [4] it was 26.8 µM; in assay [5] it was 14.2 µM; in assay [6], 48.5 µM. Besides, the TGI in assay [7] was determined as 1.27 µM; in assay [8], 26.9 µM.
In the case of `O=C1/C(=C/c2ccc([N+](=O)[O-])o2)Oc2ccc(Br)cc21`, the GI50 is 1.92 µM in assay [1]; 2.19 µM in assay [2]; 3.85 µM in assay [3]; 1.85 µM in assay [4]; 17.1 µM in assay [5]; 18.5 µM in assay [6]. The figures for the GI50 in assay [7] and in assay [8] were 2.11 µM and 2.68 µM, respectively. The TGI came out at 4.59 µM in assay [1]; 4.83 µM in assay [2]; 13 µM in assay [3]; 3.77 µM in assay [4]; 36.8 µM in assay [5]; 35.3 µM in assay [6]. For the same compound, the TGI is 3.88 µM in assay [7] and 7.01 µM in assay [8].
